Columns and labels:
SF-295 = assay: Cytotoxicity against SF295 cells; assay type: functional, cell-based; settings: Homo sapiens
Lytechinus variegatus [1] = assay: Antimitotic effect in Lytechinus variegatus at first cleavage stage at 100 ug/mL; assay type: functional
Lytechinus variegatus [2] = assay: Antimitotic effect in Lytechinus variegatus at third cleavage stage at 10 ug/mL; assay type: functional
HCT-8 = assay: Cytotoxicity against HCT8 cells; assay type: functional, cell-based; settings: Homo sapiens
HL-60 = assay: Cytotoxicity against HL60 cells; assay type: functional, cell-based; settings: Homo sapiens
Lytechinus variegatus [3] = assay: Antimitotic effect in Lytechinus variegatus at third cleavage stage at 100 ug/mL; assay type: functional
MDA-MB-435 = assay: Cytotoxicity against MDA-MB-435 cells; assay type: functional, cell-based; settings: Homo sapiens
Lytechinus variegatus [4] = assay: Antimitotic effect in Lytechinus variegatus at blastulae stage at 10 ug/mL; assay type: functional, Blastula stage
Lytechinus variegatus [5] = assay: Antimitotic effect in Lytechinus variegatus at first cleavage stage at 10 ug/mL; assay type: functional
Lytechinus variegatus [6] = assay: Antimitotic effect in Lytechinus variegatus at blastulae stage at 100 ug/mL; assay type: functional, Blastula stage

Structure (SMILES) | IC50 (SF-295) [µM] | Activity (Lytechinus variegatus [1]) [%] | Activity (Lytechinus variegatus [2]) [%] | IC50 (HCT-8) [µM] | IC50 (HL-60) [µM] | Activity (Lytechinus variegatus [3]) [%] | IC50 (MDA-MB-435) [µM] | Activity (Lytechinus variegatus [4]) [%] | Activity (Lytechinus variegatus [5]) [%] | Activity (Lytechinus variegatus [6]) [%]
C[C@H](NC(=O)Cc1ccc2c(c1)OCO2)C(N)=O | > 50 | 76.5 | 68.3 | > 50 | > 50 | 78.7 | > 50 | 92 | 76.3 | 87.7
CC(C)C[C@H](NC(=O)Cc1cc2c(cc1[N+](=O)[O-])OCO2)C(N)=O | 19.1 | 94.3 | 77 | > 50 | > 50 | 72.7 | > 50 | 80.3 | 88.3 | 89
NC(=O)[C@H](Cc1ccccc1)NC(=O)Cc1cc2c(cc1[N+](=O)[O-])OCO2 | > 50 | 1.7 | 73.3 | > 50 | > 50 | 5.3 | > 50 | 92 | 86.3 | 0
CC(C)(C)OC(=O)NCCCC[C@H](NC(=O)Cc1cc2c(cc1[N+](=O)[O-])OCO2)C(N)=O | 31.6 | 88.7 | 72.3 | > 50 | 5.4 | 66.3 | 9.2 | 79.7 | 88.7 | 3.7
CC[C@@H](C)[C@H](NC(=O)Cc1ccc2c(c1)OCO2)C(N)=O | > 50 | 87.7 | 62 | > 50 | > 50 | 70.3 | > 50 | 94.7 | 89.3 | 84.7
NC(=O)[C@H](Cc1ccc(Oc2c(Cl)cccc2Cl)cc1)NC(=O)Cc1cc2c(cc1[N+](=O)[O-])OCO2 | > 50 | 85.3 | 38 | 8.5 | > 50 | 46 | 9.9 | 1.7 | 92.3 | 15
CCOC(=O)CNC(=O)Cc1ccc2c(c1)OCO2 | 13.5 | 79.7 | 71.3 | 4.3 | 18.7 | 15.7 | > 50 | 83.7 | 83 | 0.3
CC(C)[C@H](NC(=O)Cc1ccc2c(c1)OCO2)C(N)=O | > 50 | 70.7 | 67 | > 50 | > 50 | 61.7 | > 50 | 96.7 | 88 | 1
COc1cccc2c1C(=O)c1c(O)c3c(c(O)c1C2=O)C[C@@](O)(C(=O)CO)C[C@@H]3O[C@H]1C[C@H](N)[C@H](O)[C@H](C)O1 [DOXORUBICIN] | 0.42 | 16.3 | 0 | 0.03 | – | 1.5 | 0.83 | 0.3 | 36 | 0
C=CCc1ccc2c(c1)OCO2 [SAFROLE] | 32.6 | 0.7 | 33.7 | 36.1 | 104 | 0 | 105 | 31.7 | 59.5 | 0.3

Source: ChEMBL document CHEMBL1144576, “Synthesis and antitumour evaluation of peptidyl-like derivatives containing the 1,3-benzodioxole system” (Eur J Med Chem, 2007)
